Data: article PMC12291851, “Hydrogen Sulfide (H2S)-Donating Formyl Peptide Receptor 2 (FPR2) Agonists: Design, Synthesis, and Biological Evaluation in Primary Mouse Microglia Culture” (Antioxidants, 2025)

Key:
HepG2 cells = test: Intracellular H2S release with WSP-1 probe; type: cell-based, human
Method: All cell culture reagents were purchased from S.I.A.L. S.r.l. (Rome, Italy). WSP-1 (Washington State Probe-1, 3′-methoxy-3-oxo-3H-spiro[isobenzofuran-1,9′-xanthen]-6′-yl 2-(pyridine-2-yl-disulfanyl benzoate), was obtained from Cayman Chemical (Cayman, Ann Arbor, MI, USA). HepG2, human hepatocellular carcinoma cells, was obtained from American Type Culture Collection (ATCC, Bethesda, MD, USA). Human hepatocellular carcinoma cells (HepG2) were cultured in Minimum Essential Eagle’s Medium. This medium was supplemented with 10% (v/v) Fetal Bovine Serum, 1% (v/v) Glutamine and 1% (v/v) Penicillin-Streptomycin, 1% non-essential amino acids. Cells were cultivated at 37 °C with 5% CO2 at saturated humidity.
These experiments were carried out as already described. HepG2 cells were cultured up to about 90% confluence, and 24 h before the experiment cells were seeded into a 96-well flat bottom black plate (50,000 cells per well). After 24 h, the medium was replaced and cells were incubated at 37 °C for 30 min with a 10 mM solution of the fluorescent WSP-1 probe, which is highly sensitive for H2S detection. After incubation, the supernatant was removed and replaced with different concentrations (100, 200, and 300 µM) of the tested compounds dissolved in HBSS buffer. […] ADT 100 µM was used as a slow H2S-donor reference compound. Data were analyzed by one-way ANOVA for repeated measures, followed by post hoc Bonferroni’s multiple comparison test. Results are expressed as mean ± SEM of 3 independent experiments in triplicate. Statistical significance was accepted at a level of p < 0.05.
Next, we assessed the intracellular H2S release of thioureas and thioamides in HepG2 cells. The compounds were tested at different concentrations (100–300 μM) to evaluate if the release was dose-dependent. We also assayed ADT-OH and TIA as reference H2S-donors, and 3a as a negative control. The results were normalized to the fluorescence signal obtained with 100 μM ADT-OH.

FPR2 [1] = molecular target: T1, FPR2 (Homo sapiens, UniProt P25090); test: Ca2+ mobilization (agonist activity) in FPR2-HL60 cells; details: for fold less potent at FPR2 than the corresponding urea/amide: ratio of FPR2 EC50 vs 3b, 3c or 4b; for Ca2+ Mobilization HL60-FPR2 Efficacy: response to 5 nM WKYMVM = 100%
T1 sequence (P25090 1-351): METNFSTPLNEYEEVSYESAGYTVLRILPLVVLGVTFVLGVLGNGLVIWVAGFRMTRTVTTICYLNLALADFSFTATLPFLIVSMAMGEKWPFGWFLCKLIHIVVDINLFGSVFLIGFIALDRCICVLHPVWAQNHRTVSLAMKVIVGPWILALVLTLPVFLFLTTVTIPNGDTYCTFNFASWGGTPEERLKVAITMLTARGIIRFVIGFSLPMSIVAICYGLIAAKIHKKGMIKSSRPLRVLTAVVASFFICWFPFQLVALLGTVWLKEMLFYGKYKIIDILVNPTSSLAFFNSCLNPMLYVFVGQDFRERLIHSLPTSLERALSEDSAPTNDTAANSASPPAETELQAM

FPR2 [2] = molecular target: T1, FPR2; test: FPR2 desensitization: inhibition of WKYMVM-induced Ca2+ mobilization in FPR2-HL60 cells; type: cell-based; set-up: expressed in transfected cells; host or cells: HL-60 cells; details: 10 min preincubation, then 5 nM WKYMVM
Source text: Finally, we assessed the ability of compounds to induce receptor desensitization at FPR2 by measuring the inhibition of Ca^2+ mobilization induced by subsequent treatment with a standard FPR2 agonist (IC50, Table 1) because FPR2 undergoes homologous desensitization after stimulation with agonists, resulting in functional antagonism (IC50, Table 1). […] We also evaluated the effects of the thiourea and thioamide derivatives on Ca^2+ mobilization in FPR1-HL60-transfected cells after stimulation with the FPR1 agonist (IC50, Table 1).

FPR2 [3] = molecular target: T1, FPR2; test: cell-based
[4] = Cell-free MTT-based H2S release assay; type: physicochemical; details: 24 h incubation in MEM with 10% DMSO
Method: Solutions at different concentrations of each compound in 100 µL of serum-free MEM/10% DMSO with 0.5 mg/mL 3-(4,5-dimethylthiazol-2yl)-2,5-diphenyltetrazolium bromide (MTT) were incubated for 5 h or 24 h in a humidified incubator at 37 °C in 5% CO2 atmosphere. The experimental design comprised blank wells containing only medium and MTT, and a H2S calibration curve obtained by incubating nine solutions at decreasing concentrations (100 µM to 0.01 µM) of NaHS in medium and MTT. At the end of incubation time, the supernatant was removed, the […] crystals were dissolved in 100 µL DMSO/EtOH (1:1 v/v), and absorbance values were read using a Victor 3 plate reader (PerkinElmer, Shelton, CT, USA) at 570 nm. H2S values are expressed as mean ± S.E.M. of the results of three independent experiments conducted in triplicate, and were plotted using GraphPad Prism 7.
To decipher such results and considering the redox properties of H2S, we questioned if H2S released by our compounds in the culture media could interfere with the conversion of MTT (3-[4,5-dimethylthiazol-2-yl]-2,5-diphenyl tetrazolium bromide) to formazan, which is usually related to cell viability. Thus, we ran cell-free experiments in which MTT was used as the substrate to capture the reductive action of H2S. We found, in agreement with Gerő et al., that some of our thioureas and thioamides reduced MTT to formazan after 24 h incubation in MEM with 10% DMSO.

[5] = tested on: organotypic hippocampal cultures; set-up: method as in PMID 37775304, PMID 37947648; details: nanomolar doses; ref [24],[25]; cited from earlier work
[6] = tested on: HepG2 hepatocarcinoma cells; test: MTT cell viability assay, MTT added directly to treated media; type: cell-based, human; details: 5% DMSO
Method: The cytotoxicity of our compounds was assessed using the well-established MTT assay. HepG2 hepatocarcinoma cells were cultured in Minimum Essential Medium (MEM) (Euroclone, Pero, Italy), supplemented with 10% fetal bovine serum (Euroclone, Pero, Italy), 100 U/mL penicillin, and 100 µg/mL streptomycin sulfate, at 37 °C in a humidified incubator in 5% CO2 atmosphere. For the MTT assays, these cells were cultured up to about 90% confluence and were then seeded at a concentration of 20,000 cells per well in 96-well plates. After 24 h, the culture medium was replaced with solutions at various concentrations of each compound in MEM/DMSO 5% (v/v). Control wells were incorporated in the experimental design, consisting of vehicle (MEM/DMSO 5%) and pure medium controls.
In the first round of cytotoxicity assays, 0.5 mg/mL MTT was added to each well 2 or 24 h from treatment and left to incubate for 3–5 h. In the second round of cytotoxicity assays, at 2 or 24 h after treatment, treated media were removed, the cells were washed once in PBS, and fresh medium containing 0.5 mg/mL MTT was added to each well and left to incubate for 3–5 h.
Subsequently, the supernatant was removed, and the formazan crystals were dissolved in DMSO/EtOH 1:1 (100 µL/well). Absorbance values were then recorded from each well using a Victor 3 plate reader (PerkinElmer, Shelton, CT, USA) at 570 nm. All presented data were obtained from 3 to 5 experiments performed in triplicate. Cell viability values are expressed as mean ± S.E.M. and were plotted using GraphPad Prism 7.
Next, we assessed H2S release in a biological environment using human hepatocarcinoma HepG2 cells as a model. The intracellular release of H2S was detected with the WSP-1 probe, a turn-on fluorescent probe that selectively and irreversibly reacts with H2S. Considering that a high micromolar concentration of the test compounds is required to obtain a robust fluorescent signal, we first evaluated the compounds’ cytotoxicity after 2 h and 24 h of incubation with the MTT assay in HepG2 cells. […] We accounted for this by adding a vehicle control with 5% DMSO and a control without DMSO to our experimental design.

[7] = HepG2, tested concentrations 100-300 μM, 60 min

Row | SMILES | fold less potent at FPR2 than the corresponding urea/amide (FPR2 [1]) | Ca2+ Mobilization HL60-FPR2 Efficacy (FPR2 [1]) [%] | EC50 (FPR2 [3]) [nM] | intracellular H2S release, WSP-1 fluorescence signal vs vehicle (HepG2 cells; HepG2, at 200 and 300 μM) | Ca2+ Mobilization HL60-FPR2 IC50 (FPR2 desensitization) (FPR2 [2]) | absorbance signal (MTT reduction to formazan) indicative of H2S release [4] | intracellular H2S release, WSP-1 fluorescence signal vs vehicle (HepG2 cells; [7]) | MTT absorbance signal vs control ([6]; HepG2, 2 h incubation) | further results
1 | NC(=O)c1ccc(O)cc1 [TIA, 4-hydroxybenzamide, reference compound] | – | – | – | statistically significant increase in fluorescence | – | – | – | – | –
2 | N#Cc1ccc(C[C@H](NC(=O)Nc2ccc(F)cc2)C(=O)N2CCc3ccc(F)cc32)cc1 [3c, (S)-1-[3-(4-cyanophenyl)-1-(6-fluoroindolin-1-yl)-1-oxopropan-2-yl]-3-(4-fluorophenyl)urea] | – | – | – | – | – | – | – | – | protective and anti-inflammatory properties [5]: beneficial protective and anti-inflammatory properties at nanomolar doses
3 | [Na+].[SH-] [NaHS, sodium hydrogen sulfide, reference compound] | – | – | – | – | – | strong dose-dependent signal | – | – | –
4 | N#Cc1ccc(C[C@H](NC(=O)Nc2ccc(F)cc2)C(=O)N2CCc3ccccc32)cc1 [3b, (S)-1-[3-(4-cyanophenyl)-1-(indolin-1-yl)-1-oxopropan-2-yl]-3-(4-fluorophenyl)urea] | – | – | – | – | – | – | – | – | protective and anti-inflammatory properties [5]: beneficial protective and anti-inflammatory properties at nanomolar doses
5 | N#Cc1ccc(C[C@H](NC(=S)Nc2ccc(F)cc2)C(=O)NCC2(c3ccc(F)c(Cl)c3)CC2)cc1 [5a, (S)-N-[[1-(3-Chloro-4-fluorophenyl)cyclopropyl]methyl]-3-(4-cyanophenyl)-2-[3-(4-fluorophenyl)thioureido]propanamide] | – | – | – | – | – | did not give off any detectable absorbance signal | comparable to vehicle | pronounced signal | Ca2+ Mobilization HL60-FPR2 EC50 (FPR2 [1]; HL-60 cells transfected with human FPR2): inactive; MTT absorbance signal vs control ([6]; HepG2, 24 h incubation): higher than the control
6 | O=c1cc(-c2cccc(O)c2)ss1 [ADT-OH, 5-(5-hydroxyphenyl)-3H-1,2-dithiol-3-one, reference compound] | – | – | – | – | – | – | statistically significant increase in fluorescence | – | –

Second part, led by results:

Row | fold less potent at FPR2 than the corresponding urea/amide (FPR2 [1]) | Ca2+ Mobilization HL60-FPR2 Efficacy (FPR2 [1]) [%] | EC50 (FPR2 [3]) [nM] | SMILES | intracellular H2S release, WSP-1 fluorescence signal vs vehicle (HepG2 cells; HepG2, at 200 and 300 μM) | Ca2+ Mobilization HL60-FPR2 IC50 (FPR2 desensitization) (FPR2 [2]) | absorbance signal (MTT reduction to formazan) indicative of H2S release [4] | intracellular H2S release, WSP-1 fluorescence signal vs vehicle (HepG2 cells; [7]) | MTT absorbance signal vs control ([6]; HepG2, 2 h incubation) | further results
7 | more than 10 fold | 65 | 2200 ± 700 | N#Cc1ccc(C[C@H](NC(=S)Nc2ccc(F)cc2)C(=O)N2CCc3ccccc32)cc1 [5b, (S)-1-[3-(4-Cyanophenyl)-1-(indolin-1-yl)-1-oxopropan-2-yl]-3-(4-fluorophenyl)thiourea] | – | inactive | significant absorbance signal with slight dose-dependent effects | – | – | –
8 | – | 145 | 2300 ± 800 | N#Cc1ccc(C[C@H](NC(=O)Nc2ccc(F)cc2)C(=S)NCC2(c3ccc(F)c(Cl)c3)CC2)cc1 [7a, (S)-N-[[1-(3-Chloro-4-fluorophenyl)cyclopropyl]methyl]-3-(4-cyanophenyl)-2-[3-(4-fluorophenyl)ureido]propanethioamide] | – | submicromolar concentration | below the assay’s detection limit | significant fluorescence signal increase at all tested concentrations | – | IC50 (FPR2 [2]): 300 ± 100 nM; intracellular level of H2S vs reference H2S donor ADT (HepG2 cells; HepG2, at 200 and 300 μM, p < 0.001 vs. ADT): more than the reference H2S donor ADT; levels of H2S release in HepG2 cells (HepG2 cells; summary of WSP-1 results): very high levels of H2S release
9 | more than 10 fold | 105 | 12000 ± 32000 | N#Cc1ccc(C[C@H](NC(=S)Nc2ccc(F)cc2)C(=O)N2CCc3ccc(F)cc32)cc1 [5c] | statistically significant increase in the fluorescent signal | inactive | significant absorbance signal with slight dose-dependent effects | – | pronounced signal | –
10 | more than 10 fold | 65 | 1700 ± 700 | N#Cc1ccc(C[C@H](NC(=S)Nc2ccc(Br)cc2)C(=O)N2CCc3ccccc32)cc1 [6b, (S)-1-(4-Bromophenyl)-3-[3-(4-cyanophenyl)-1-(indolin-1-yl)-1-oxopropan-2-yl]thiourea] | statistically significant increase in the fluorescent signal | – | – | – | pronounced signal | IC50 (FPR2 [2]): 2200 ± 400 nM; MTT absorbance signal vs control ([6]; HepG2, 24 h incubation): higher than the control
